In patent US20040166079A1, “N-Lauroyl amino acid composition for slimming the human body” (priority 2003, published 2004):

What was measured:
lipoprotein lipase (LPL) = test: Measurement of the activity of lipoprotein lipase (PNPB hydrolysis, 400 nm); format: biochemical, pseudomonas species; conditions: relative to the control
Method: Lipoprotein lipase (LPL) is an enzyme found in the extracellular compartment of adipocytes. It brings about the hydrolysis of the triglycerides contained in the chylomicrons to fatty acids and glycerol. The latter can thus penetrate into the adipocytes to be stored therein. […] It is based on an enzymatic test using a purified enzyme. A lipoprotein lipase (SIGMA, pseudomonas species) is incubated in the presence of a substrate, p-nitrophenyl butyrate (PNPB), which absorbs light at 400 nm after hydrolysis. [drawing 6] The enzyme, at 20 U/ml, is incubated in the presence of the test product and PNPB, at 0.9 mM. The kinetics of appearance of p-nitrophenol is performed at 37° C. for 10 minutes. It is monitored by measuring the absorbance at 400 nm. The results are presented in the following table, as a percentage inhibition of the lipoprotein lipase activity relative to the control.

human recombinant MMP-2 = target: T1, human recombinant MMP-2 (Homo sapiens, UniProt P08253); test: Measurement of the activity of metalloproteinase MMP-2 (DQ-gelatin fluorescence); format: biochemical; conditions: incubation concentration 0.1 % DE; relative to the control
T1 construct: purchased CALBIOCHEM PF023
T1 sequence (P08253 110-660): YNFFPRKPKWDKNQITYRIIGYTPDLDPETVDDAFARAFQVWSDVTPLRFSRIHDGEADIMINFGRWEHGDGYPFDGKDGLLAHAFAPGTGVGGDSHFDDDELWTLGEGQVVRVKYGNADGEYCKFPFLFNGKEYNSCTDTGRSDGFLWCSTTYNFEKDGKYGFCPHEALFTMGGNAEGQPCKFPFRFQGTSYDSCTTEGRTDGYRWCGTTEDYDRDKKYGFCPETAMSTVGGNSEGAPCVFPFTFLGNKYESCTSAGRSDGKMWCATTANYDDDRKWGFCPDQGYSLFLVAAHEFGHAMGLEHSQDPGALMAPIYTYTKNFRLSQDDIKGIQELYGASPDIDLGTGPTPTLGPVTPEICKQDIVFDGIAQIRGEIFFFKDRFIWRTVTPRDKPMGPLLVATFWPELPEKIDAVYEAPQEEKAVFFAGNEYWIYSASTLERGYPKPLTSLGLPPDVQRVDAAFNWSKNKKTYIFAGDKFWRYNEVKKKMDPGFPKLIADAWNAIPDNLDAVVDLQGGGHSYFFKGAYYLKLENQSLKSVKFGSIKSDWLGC
Method: (§1) The objective of this test is to evaluate the inhibitory capacity of a product on the enzymatic activity of MMP-2 and MMP-9. This test is based on an enzymatic reaction between purified MMP-2 or MMP-9 and a specific substrate containing a chromophore. The degradation of the chromogenic substrate by the enzyme leads to the production of fluorescence monitored by fluorimetry.
(§2) (ii)—A human recombinant MMP-2 (CALBIOCHEM, PF023) is incubated, at 0.1 μg/ml, in the presence of the product and the chromogenic substrate, DQ-gelatin conjugated with fluorescein (MOLECULAR PROBE, D12054) at 10 μg/ml. The reaction mixture is incubated overnight at room temperature, protected from light. The quantity of DQ-gelatin degraded is measured by fluorescence (Ex: 355 nm; Em: 460 nm).
(§3) The reactivity of the enzymatic system is systematically monitored for the measurement of the effect of a metalloproteinase inhibitor, 1,10-phenanthroline. The results are presented in the following table, as a percentage inhibition of the enzymatic activity of MMP-2 and MMP-9 relative to the control.

human recombinant MMP-9 = target: T2, human recombinant MMP-9 (Homo sapiens, UniProt P14780); test: Measurement of the activity of metalloproteinase MMP-9 (DQ-gelatin fluorescence); format: biochemical; conditions: incubation concentration 0.1 % DE; relative to the control
T2 construct: purchased CALBIOCHEM PF024
T2 sequence (P14780 107-707 limits assumed): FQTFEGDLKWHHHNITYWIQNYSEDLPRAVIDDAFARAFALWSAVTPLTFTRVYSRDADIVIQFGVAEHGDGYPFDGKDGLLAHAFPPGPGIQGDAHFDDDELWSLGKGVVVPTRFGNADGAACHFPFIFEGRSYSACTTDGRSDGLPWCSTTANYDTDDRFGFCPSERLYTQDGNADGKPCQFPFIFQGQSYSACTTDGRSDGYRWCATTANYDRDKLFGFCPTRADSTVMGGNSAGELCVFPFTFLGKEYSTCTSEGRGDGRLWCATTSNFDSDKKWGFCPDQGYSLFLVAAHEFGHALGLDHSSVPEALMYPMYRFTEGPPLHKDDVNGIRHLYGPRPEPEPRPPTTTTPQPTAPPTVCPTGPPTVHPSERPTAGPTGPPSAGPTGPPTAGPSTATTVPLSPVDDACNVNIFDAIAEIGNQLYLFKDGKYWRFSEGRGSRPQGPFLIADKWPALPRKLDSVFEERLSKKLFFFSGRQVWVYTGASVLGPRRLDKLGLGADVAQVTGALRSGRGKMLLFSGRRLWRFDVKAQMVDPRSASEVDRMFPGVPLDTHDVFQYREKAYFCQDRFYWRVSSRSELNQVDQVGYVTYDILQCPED
Method: as §1
as §2, with “(i)—A” for “(ii)—A”, “MMP-9” for “MMP-2”, “PF024)” for “PF023)”, “0.05” for “0.1”
as §3

[1] = target: T3, hyaluronidase (SIGMA), purified from bovine testicles (Bos taurus, UniProt Q2YDK3); test: Measurement of the activity of hyaluronidase (purified enzyme); format: biochemical; conditions: hyaluronidase test, 60 minutes at 37° C.
T3 construct: purified from bovine testicles; purchased SIGMA; host or cells: bovine testicles
T3 sequence (Q2YDK3 36-553): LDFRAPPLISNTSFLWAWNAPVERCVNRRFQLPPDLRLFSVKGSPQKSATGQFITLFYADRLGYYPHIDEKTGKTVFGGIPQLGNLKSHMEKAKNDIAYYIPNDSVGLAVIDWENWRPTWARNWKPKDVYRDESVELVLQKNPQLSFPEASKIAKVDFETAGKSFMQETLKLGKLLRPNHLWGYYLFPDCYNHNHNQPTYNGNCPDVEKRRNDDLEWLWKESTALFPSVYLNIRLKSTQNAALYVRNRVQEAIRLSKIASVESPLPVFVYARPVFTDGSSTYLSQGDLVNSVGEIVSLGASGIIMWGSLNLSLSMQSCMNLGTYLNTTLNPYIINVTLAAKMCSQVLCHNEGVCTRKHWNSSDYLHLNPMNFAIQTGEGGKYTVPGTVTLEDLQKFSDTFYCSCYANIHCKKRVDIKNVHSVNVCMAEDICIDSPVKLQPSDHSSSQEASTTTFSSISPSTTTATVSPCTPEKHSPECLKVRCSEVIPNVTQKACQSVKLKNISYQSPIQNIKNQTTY
Method: The objective of this test is to measure the activity of hyaluronidase. This enzyme, which is naturally found in the skin, degrades hyaluronic acid. The study is carried out in vitro on the purified enzyme.
The hyaluronidase (SIGMA), purified from bovine testicles, is incubated at 0.01 U/ml in the presence of hyaluronic acid at 0.02 mg/ml, with or without test product. The incubation is carried out for 60 minutes at 37° C.
Evaluation of the effects: After the incubation, the hyaluronic acid not degraded by the enzyme is precipitated by a 24 mM sodium acetate/79. mM acetic acid mixture (10 minutes, room temperature). The precipitate is measured by spectrophotometry at 590 nm.
The effect of the test products is compared to that observed in the presence of dipotassium glycyrrhizinate, a reference hyaluronidase inhibitor.

[2] = incubation concentration 0.01 % DE

Cn1c(=O)c2c(ncn2C)n(C)c1=O [Caffeine, 1,3,7-trimethyl-xanthine]
Percentage inhibition of LPL (lipoprotein lipase (LPL); [2]): 0% | Percentage inhibition of LPL (lipoprotein lipase (LPL); incubation concentration 0.1 % DE): 0% | MMP-2 inhibiting effect (human recombinant MMP-2): 0% | MMP-9 inhibiting effect (human recombinant MMP-9): 0% | Percentage inhibition of hyaluronidase activity ([1]; incubation concentration 0.001 % DE): 15% | Percentage inhibition of hyaluronidase activity [1, 2]: 20%
